# According to PubChem BioAssay (NCI):
#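 All cell lines were grown in 96-well plates and treated with compound for 48 hours. TGI marks complete inhibition of growth.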 Where a SMILES comes first, the peptide text is derived from it. The star is where a group is joined. Boc = CC(C)(C)OC(=O)*; OBn = c1ccc(CO*)cc1
# Columns and labels:
# Assay in all cases: NCI anticancer screen, dose series, 48 h
# M14 melanoma = tested on: M14 melanoma
# HOP-62 NSCLC = tested on: HOP-62 NSCLC
# RXF 393 renal = tested on: RXF 393 renal
# UACC-62 melanoma = tested on: UACC-62 melanoma
# UO-31 renal = tested on: UO-31 renal
# NCI-H522 lung = tested on: NCI-H522 lung
# MALME-3M melanoma = tested on: MALME-3M melanoma
# SF-295 CNS = tested on: SF-295 CNS
# OVCAR-8 ovarian = tested on: OVCAR-8 ovarian
# OVCAR-5 ovarian = tested on: OVCAR-5 ovarian
# HL-60(TB) leukemia = tested on: HL-60(TB) leukemia
# IGROV1 ovarian = tested on: IGROV1 ovarian
# MDA-MB-435 = tested on: MDA-MB-435
# LOX IMVI melanoma = tested on: LOX IMVI melanoma
# HS 578T breast = tested on: HS 578T breast
# RPMI-8226 leukemia = tested on: RPMI-8226 leukemia
# SK-MEL-2 melanoma = tested on: SK-MEL-2 melanoma
# MOLT-4 leukemia = tested on: MOLT-4 leukemia
Structure (SMILES),TGI (M14 melanoma),TGI (HOP-62 NSCLC),TGI (RXF 393 renal),TGI (UACC-62 melanoma),TGI (UO-31 renal),TGI (NCI-H522 lung),TGI (MALME-3M melanoma),TGI (SF-295 CNS),TGI (OVCAR-8 ovarian),TGI (OVCAR-5 ovarian),TGI (HL-60(TB) leukemia),TGI (IGROV1 ovarian),TGI (MDA-MB-435),TGI (LOX IMVI melanoma),TGI (HS 578T breast),TGI (RPMI-8226 leukemia),TGI (SK-MEL-2 melanoma),TGI (MOLT-4 leukemia)
O=C1Nc2ccccc2/C1=C/c1c(Cl)[nH]c2ccc(O)cc12,11 µM,19.1 µM,9.02 µM,6.04 µM,28.2 µM,6.74 µM,15.7 µM,> 25.5 µM,12.8 µM,17.1 µM,5.31 µM,13.5 µM,0.947 µM,27.8 µM,> 100 µM,14.1 µM,12.7 µM,40.1 µM
CC(NC(=O)C(Cc1ccccc1)NC(=O)C(Cc1ccccc1)NC(=O)OC(C)(C)C)C(=O)OCc1ccccc1 (stereo not drawn) (Boc-Phe-Phe-Ala-OBn; configuration not given here),> 100 µM,> 100 µM,> 100 µM,> 100 µM,> 100 µM,> 100 µM,> 100 µM,> 100 µM,> 100 µM,> 100 µM,> 100 µM,> 100 µM,> 100 µM,> 100 µM,> 100 µM,> 100 µM,> 100 µM,> 100 µM
O=C1C(=C(I)I)c2ccccc2-c2ccccc21,9.15 µM,24.3 µM,3.22 µM,10.7 µM,4.7 µM,2.61 µM,4.08 µM,31.8 µM,7.72 µM,17.1 µM,> 21.3 µM,17.6 µM,5.58 µM,5.26 µM,19.6 µM,3.95 µM,19.7 µM,6.48 µM
COc1cccc2c1C(=O)c1ccc3cc(CCl)cc(O)c3c1C2=O,0.743 µM,1.08 µM,0.756 µM,0.687 µM,1.14 µM,1.15 µM,0.515 µM,2.23 µM,0.612 µM,1.71 µM,0.551 µM,1.54 µM,0.46 µM,0.595 µM,2.32 µM,1.37 µM,1.1 µM,2.88 µM
NC(=O)NC(=O)c1cccc(NC(=O)CF)c1,> 100 µM,> 100 µM,> 100 µM,> 100 µM,80.6 µM,> 100 µM,> 100 µM,> 100 µM,> 100 µM,> 100 µM,> 100 µM,> 100 µM,> 100 µM,> 100 µM,> 100 µM,> 100 µM,> 100 µM,> 100 µM
c1ccc2c(c1)nc1n2C2CCC(C2)N1 (centres undefined),> 10 µM,> 10 µM,> 10 µM,> 10 µM,> 10 µM,> 10 µM,> 10 µM,> 10 µM,> 10 µM,> 10 µM,> 10 µM,> 10 µM,> 10 µM,> 10 µM,> 10 µM,> 10 µM,> 10 µM,> 10 µM
Cn1cnc(N2CCCC2)c(C#N)c1=O,> 100 µM,> 100 µM,> 100 µM,> 100 µM,> 100 µM,> 100 µM,> 100 µM,> 100 µM,> 100 µM,> 100 µM,> 100 µM,> 100 µM,> 100 µM,> 100 µM,> 100 µM,> 100 µM,> 100 µM,> 100 µM
COc1cccc(C2SCC(=O)N2c2ccc(-n3c(-c4ccccc4)nc4ccccc4c3=O)cc2)c1OC (centres undefined),> 100 µM,> 100 µM,> 100 µM,> 100 µM,> 100 µM,> 100 µM,> 100 µM,> 100 µM,> 100 µM,> 100 µM,> 100 µM,> 100 µM,> 100 µM,> 100 µM,> 100 µM,> 100 µM,> 100 µM,> 100 µM
O=C1/C(=C/c2ccccc2)CCC/C1=C\c1ccc(O)c(CN2CCCCC2)c1,26.1 µM,32 µM,26.7 µM,10.5 µM,19.7 µM,7.22 µM,40.2 µM,13 µM,9.54 µM,37.9 µM,> 100 µM,11.2 µM,7.5 µM,4.08 µM,15.1 µM,> 100 µM,29.2 µM,8.21 µM
Cc1ccc(S(=O)(=O)NNC2(NS(=O)(=O)c3ccc(Cl)cc3)C(Cl)=C(Cl)C(=O)c3ccccc32)cc1 (centres undefined),33 µM,54.8 µM,31.1 µM,31 µM,42.5 µM,> 100 µM,33.2 µM,51.4 µM,87.8 µM,33.4 µM,37.4 µM,34.3 µM,36 µM,65.1 µM,54.8 µM,67 µM,50.6 µM,> 100 µM
CC(C)(C)OC(=O)N/N=C(/N)Cc1ccccc1,> 100 µM,> 100 µM,> 100 µM,> 100 µM,> 100 µM,> 100 µM,> 100 µM,> 100 µM,> 100 µM,> 100 µM,> 100 µM,> 100 µM,> 100 µM,> 100 µM,> 100 µM,> 100 µM,> 100 µM,> 100 µM
O=C1/C(=C/c2c(Cl)[nH]c3ccccc23)c2ccccc2N1c1ccccc1,13 µM,26.1 µM,31.1 µM,21.1 µM,37.1 µM,10.7 µM,18.6 µM,8.54 µM,20.4 µM,81.9 µM,13.9 µM,39.1 µM,4.12 µM,15.6 µM,30.2 µM,22.3 µM,9.57 µM,31.8 µM
Cc1n[nH]c(=O)n1/N=C\CC/C=N\n1c(C)n[nH]c1=O,> 100 µM,> 100 µM,> 100 µM,> 100 µM,> 100 µM,> 100 µM,> 100 µM,> 100 µM,> 100 µM,> 100 µM,> 100 µM,> 100 µM,> 100 µM,> 100 µM,> 100 µM,> 100 µM,> 100 µM,> 100 µM
O=C(CCCN1CCC2(CC1)CC(=O)N(N1CCCCCC1)C2=O)c1ccc(F)cc1,> 100 µM,> 100 µM,97.9 µM,> 100 µM,> 100 µM,> 100 µM,> 100 µM,63.2 µM,34.7 µM,> 100 µM,> 100 µM,> 100 µM,> 100 µM,> 100 µM,> 100 µM,> 100 µM,> 100 µM,> 100 µM
O=C(/C=C/c1ccccc1)CSc1nc2ccc(I)cc2c(=O)n1Cc1ccccc1,> 100 µM,59.1 µM,> 94.5 µM,> 100 µM,0.553 µM,> 89.5 µM,51.3 µM,> 70.6 µM,> 100 µM,> 100 µM,57.2 µM,> 68 µM,> 100 µM,> 100 µM,67.7 µM,> 88 µM,99 µM,35.2 µM
COc1ccc(C(=O)N(C(=S)OCCOc2ccccc2)c2ccccc2)cc1,> 100 µM,> 100 µM,98.5 µM,> 100 µM,29.9 µM,> 100 µM,88.5 µM,> 100 µM,> 100 µM,> 100 µM,51.9 µM,> 100 µM,> 100 µM,> 100 µM,> 100 µM,37.9 µM,68.5 µM,53.8 µM
CN(CCCN(C)CCc1ccc(Cl)c(Cl)c1)CCCN1CCCC1,3.66 µM,10.5 µM,4.58 µM,3.49 µM,2.76 µM,3.51 µM,3.83 µM,4.76 µM,10.9 µM,15.1 µM,4.12 µM,8.65 µM,1.42 µM,3.54 µM,4.31 µM,2.19 µM,3.48 µM,12.4 µM
Cc1ccc(S(=O)(=O)n2c3c(c4ccccc42)CCN2CCC(Br)C[C@@H]32)cc1 (some centres undefined),25.9 µM,28.5 µM,26.1 µM,25.3 µM,24.2 µM,18.6 µM,26.1 µM,23.1 µM,25.1 µM,31.9 µM,17.4 µM,22.3 µM,14.4 µM,27.6 µM,28.5 µM,24.4 µM,31.7 µM,25.8 µM
